Measured values taken from patent US8007996B2, “Methods to identify protein arginine deiminase 4 inhibitors” (University of South Carolina, priority 2007, dated 2011).
Entries after “also recorded” stand apart in the source; their conditions may differ. Like-named read-outs stand apart in the source and are kept apart here.

How the values were obtained:
PAD4 [1] = target: T1, PAD4 (Homo sapiens, UniProt Q9UM07); experiment: Standard PAD4 assay (citrulline formation from BAEE), IC50 studies; format: biochemical
T1 construct: made in house
From the text: Reactions were quenched by flash freezing in liquid N2. The amount of Cit produced was then quantified according to methods known in the art. […] Inhibition Studies.

PAD4 [2] = target: T1, PAD4; experiment: ABPP-based inhibitor screen: competition with RFA for labelling of PAD4, gel fluorescence; format: binding; settings: compound 2.5 mM, RFA 10 μM, PAD4 2 μM, 30 min at 37° C.
Procedure: Very generally, potential inhibitor compounds are incubated individually with PAD4 in the presence of RFA for 30 min at 37° C.; at which point the reactions are quenched with SDS-PAGE loading dye and the mixtures are run on an SDS-PAGE gel. The amount of fluorescent PAD4 can then be quantified using a molecular imaging system. PAD4 inhibitors are readily identified by a decrease in fluorescence intensity.
RFA (10 μM final) and a particular compound from the library (2.5 mM final) were pre-incubated in Screening Buffer (500 μM TCEP, 10 mM CaCl2, 100 mM HEPES 7.6, 50 mM NaCl) for 10 min at 37° C. PAD4 (2 μM final) was then added to this mixture and incubated for 30 min at 37° C. The reaction was quenched with 6×SDS-PAGE Dye, incubated at 95° C. for 10 min, and then loaded onto a 12% SDS-PAGE gel. After electrophoresis, the gel was placed in destaining buffer (10% glacial acetic acid, 45% methanol, 45% ddH2O) until the fluorescence was measured using a fluorescence based molecular imaging station (Kodak Image Station 2000MM; excitation at 535 nm, emission at 600 nm). The protein gel was then stained and destained to ensure equal protein loading. A sample without a potential inhibitor was used as a control.

PAD4 [3] = target: T1, PAD4; experiment: Inhibition studies: kinetic analysis of PAD4 activity versus BAEE concentration; format: biochemical; settings: for kinetic mechanism of PAD4 inhibition: Lineweaver-Burk plots; for Ki: BAEE 0-20 mM, 0.2 μM PAD4
Procedure: PAD4 activity was measured as a function of substrate concentration in the absence and presence of increasing concentrations of each inhibitor.
Briefly, the compounds were incubated in Reaction Buffer containing various concentrations of BAEE (0-20 mM) for 10 minutes at 37° C. PAD4 (0.2 μM) was then added to initiate the reaction and allowed to proceed for 6 additional minutes. Reactions were then quenched by flash freezing in liquid N2 and the amount of Cit produced was quantified.
[formula] using GraFit version 5.0.11.

PAD4 [4] = target: T1, PAD4; experiment: as above; format: biochemical; settings: product formation linear with respect to time
[5] = 1 mM BAEE, 0.2 μM PAD4, 15 min pre-incubation at 37° C.

T1 sequence (Q9UM07 whole entry): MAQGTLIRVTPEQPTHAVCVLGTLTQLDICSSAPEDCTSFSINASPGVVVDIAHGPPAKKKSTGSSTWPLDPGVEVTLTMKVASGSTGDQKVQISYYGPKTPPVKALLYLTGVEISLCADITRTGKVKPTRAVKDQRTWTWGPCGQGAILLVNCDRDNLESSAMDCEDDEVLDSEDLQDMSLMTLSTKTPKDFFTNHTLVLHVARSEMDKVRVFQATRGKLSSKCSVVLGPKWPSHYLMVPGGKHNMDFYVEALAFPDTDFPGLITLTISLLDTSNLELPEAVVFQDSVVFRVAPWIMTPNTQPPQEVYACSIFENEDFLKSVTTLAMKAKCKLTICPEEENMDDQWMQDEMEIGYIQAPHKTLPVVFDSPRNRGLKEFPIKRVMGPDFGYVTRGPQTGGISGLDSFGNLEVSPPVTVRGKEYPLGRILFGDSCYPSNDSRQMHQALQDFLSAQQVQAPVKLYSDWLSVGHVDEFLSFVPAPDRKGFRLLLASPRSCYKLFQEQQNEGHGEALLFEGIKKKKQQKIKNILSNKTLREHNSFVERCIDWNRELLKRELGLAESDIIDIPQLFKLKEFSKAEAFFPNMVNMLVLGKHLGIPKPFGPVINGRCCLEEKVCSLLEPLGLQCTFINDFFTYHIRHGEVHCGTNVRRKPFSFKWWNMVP

Compound | IC50 (PAD4 [1]; [5]) | decrease in fluorescence intensity of PAD4 (PAD4 [2]) | further results
COc1cc(Cc2cnc(N)nc2N)cc(OC)c1OC [Trimethoprim] | 7.5 ± 0.2 mM | little to no decrease | 
[H]/N=C(/N)N[C@H]1[C@H](O)[C@@H](O)[C@H](O[C@@H]2O[C@@H](C)[C@](O)(C=O)[C@H]2O[C@@H]2O[C@@H](CO)[C@H](O)[C@@H](O)[C@@H]2NC)[C@@H](N/C(N)=N\[H])[C@@H]1O [Streptomycin] |  | strong decrease | deimination of the compound by PAD4 (substrate) (PAD4 [1]): not deiminated; kinetic mechanism of PAD4 inhibition (PAD4 [3]): competitive inhibitor; reversibility of PAD4 inhibition (PAD4 [4]): reversible
Azithromycin | > 10 mM | little to no decrease | 
Cn1cnc([N+](=O)[O-])c1Sc1ncnc2nc[nH]c12 [Azathioprine] | > 7.5 mM |  | 
Sulfamethox-azole | > 10 mM | little to no decrease | 
Leflunomide | 2.4 ± 0.8 mM | Intermediate effects | 
CN(C)c1ccc(O)c2c1C[C@H]1C[C@H]3[C@H](N(C)C)C(O)=C(C(N)=O)C(=O)[C@@]3(O)C(O)=C1C2=O [Minocycline] | 0.62 mM | strong decrease | IC50 (PAD4 [1]; standard assay): 0.62 mM; Ki (PAD4 [3]; read-out: Kii): 0.63 ± 0.15 mM; Ki (PAD4 [3]; read-out: Kis): 0.18 ± 0.06 mM; kinetic mechanism of PAD4 inhibition (PAD4 [3]): mixed type inhibitor; also recorded: mixed inhibitors; reversibility of PAD4 inhibition (PAD4 [4]): reversible
Nc1ccc(S(=O)(=O)Nc2ccccn2)cc1 [Sulfapyridine] | > 10 mM | little to no decrease | 
CN(C)[C@H]1C(O)=C(C(N)=O)C(=O)C2(O)C(O)=C3C(=O)c4c(O)ccc(Cl)c4C(C)(O)C3CC12 (stereo partly drawn) [Chlortetracycline] |  |  | kinetic mechanism of PAD4 inhibition (PAD4 [3]): mixed inhibition; also recorded: mixed inhibitors; reversibility of PAD4 inhibition (PAD4 [4]): reversible

Further lines, with some results ahead:

IC50 (PAD4 [1]; [5]) | decrease in fluorescence intensity of PAD4 (PAD4 [2]) | Compound | further results
0.1 ± 0.01 mM |  | CN(C)[C@H]1C(O)=C(C(N)=O)C(=O)C2(O)C(O)=C3C(=O)c4c(O)cccc4C(C)(O)C3CC12 (stereo partly drawn) [Tetracycline] | 
> 10 mM | little to no decrease | Nc1ccc(O)c(C(=O)O)c1 [5-Amino-salicylic Acid] | 
> 10 mM | Intermediate effects | CN(Cc1cnc2nc(N)nc(N)c2n1)c1ccc(C(=O)N[C@@H](CCC(=O)O)C(=O)O)cc1 [Methotrexate] | 
 | Intermediate effects | CCCC1CC(C(=O)NC(C(C)Cl)C2OC(SC)C(O)C(O)C2O)N(C)C1 (stereo not drawn) [Clindamycin] | 
